Assay [1] deals with T1, human PPARγ (Homo sapiens, UniProt P37231).
T1 construct: expressed in transfected cells
T1 sequence (P37231 1-477 isoform P37231-2): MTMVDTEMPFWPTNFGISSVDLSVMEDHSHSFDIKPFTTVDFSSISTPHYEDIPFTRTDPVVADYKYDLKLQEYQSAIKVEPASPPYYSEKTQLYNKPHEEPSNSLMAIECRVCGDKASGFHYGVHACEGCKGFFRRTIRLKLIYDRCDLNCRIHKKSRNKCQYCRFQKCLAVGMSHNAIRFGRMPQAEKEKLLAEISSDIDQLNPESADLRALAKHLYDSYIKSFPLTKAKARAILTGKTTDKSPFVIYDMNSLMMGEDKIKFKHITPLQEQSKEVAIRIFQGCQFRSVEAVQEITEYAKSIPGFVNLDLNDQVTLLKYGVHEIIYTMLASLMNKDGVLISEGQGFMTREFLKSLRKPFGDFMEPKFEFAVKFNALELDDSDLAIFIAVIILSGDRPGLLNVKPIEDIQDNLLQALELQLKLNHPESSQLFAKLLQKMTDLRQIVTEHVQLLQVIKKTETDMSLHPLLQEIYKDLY
T1 sequence (P19793 1-462 partner): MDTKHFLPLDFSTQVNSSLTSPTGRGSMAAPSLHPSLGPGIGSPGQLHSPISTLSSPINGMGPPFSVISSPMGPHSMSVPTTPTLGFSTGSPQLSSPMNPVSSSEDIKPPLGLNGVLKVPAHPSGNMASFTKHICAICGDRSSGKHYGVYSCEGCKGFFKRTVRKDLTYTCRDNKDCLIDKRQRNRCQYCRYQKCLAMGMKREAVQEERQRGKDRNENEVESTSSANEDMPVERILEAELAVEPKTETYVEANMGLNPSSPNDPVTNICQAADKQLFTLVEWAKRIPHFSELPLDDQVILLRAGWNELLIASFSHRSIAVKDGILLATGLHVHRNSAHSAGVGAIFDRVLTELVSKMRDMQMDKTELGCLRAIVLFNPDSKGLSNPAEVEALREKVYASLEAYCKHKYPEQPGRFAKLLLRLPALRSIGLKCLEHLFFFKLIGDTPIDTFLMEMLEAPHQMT
In words: PPARγ agonistic activity: luciferase reporter assay in PPARγ:RXRα:4ERPP/CHO-K1 cells. The note with it: CHO-K1, test compound 10^−6 M; luciferase activity of control compound X (1 μM) = 100%, non-administration group = 0%. The format is cell-based. The source says:
A CHO-K1 cell cultured in a 150 cm^2 cell culture flask [manufactured by Corning Costar Corporation, USA] comprising Ham's F12 medium [manufactured by INVITROGEN, USA] supplemented with 10% fetal bovine serum [manufactured by INVITROGEN, USA] was taken off by treating with 0.5 g/L trypsin-0.2 g/L EDTA (ethylenediamine tetraacetate) [manufactured by Life Technologies, Inc., USA], and then the cell was washed with PBS (Phosphate-buffered saline) [manufactured by INVITROGEN, USA], centrifuged (1000 rpm, 5 minutes) and suspended in PBS. Subsequently, DNA was introduced into the cell under the conditions shown below using GENE PULSER [manufactured by Bio-Rad Laboratories, USA].
Namely, to a cuvette having a 0.4 cm gap were added 8×10^6 cells and 10 μg of plasmid pVgRXR2-hPPARγ obtained in the above-mentioned (4) and 10 μg of reporter plasmid pGL3-4ERPP-TK neo obtained in the above-mentioned (3), which was subjected to electroporation at the voltage of 0.25 kV under the capacitance of […] Subsequently, the cell was transferred into a F12 medium comprising 10% fetal bovine serum and cultured for 24 hours, and then the cell was taken off again and centrifuged. Then, the pellet was suspended in Ham's F12 medium comprising 10% fetal bovine serum supplemented with 500 μg/ml of Geneticin [manufactured by INVITROGEN, USA] and 250 μg/ml of Zeocin [manufactured by INVITROGEN, USA]. The obtained suspension was diluted to the density of 10^4 cells/ml and inoculated in a 96-well plate [manufactured by Corning Costar Corporation, USA], which was cultured in a CO2 gas incubator at 37° C., whereby obtaining a Geneticin- and Zeocin-resistant transformant.
Subsequently, after the transformed cell line thus obtained was cultured in a 24-well plate [manufactured by Corning Costar Corporation, USA], a cell line in which expression of the luciferase was induced, i.e., PPARγ:RXRα:4ERPP/CHO-K1 cell was selected by the addition of 10 μM pioglitazone hydrochloride.
PPARγ:RXRα:4ERPP/CHO-K1 cells obtained in the above-mentioned (5) were cultured in F12 medium [manufactured by INVITROGEN, USA] containing 10% fetal bovine serum [manufactured by MOREGATE, Australia], seeded in a 96 well half-area white plate [manufactured by Corning Coster Corporation, USA] at 5×10^3 cells/well, and cultured in a CO2 incubator at 37° C. overnight.
Then, the medium was removed from the 96 well half-area white plate, hamF12 medium containing 0.1% fatty acid-free bovine serum albumin (BSA) (45 μl) and a test compound (5 μl) were added, and the mixture was cultured in the CO2 incubator at 37° C. for 1 day. After removing the medium, Picagene 7.5 [manufactured by Dai Nippon Inki, Japan] (20 μl) diluted 2-fold with HBSS (HANKS' BALANCED SALT SOLUTION) [manufactured by BIO […], USA] was added, and the mixture was stirred. Using 1420 ARVO Multilabel Counter [manufactured by PerkinElmer, USA], luciferase activity was measured. The percentage (%) was calculated from the luciferase activity of the test compound when the luciferase activity of the control compound (compound X: 5-[3-(4-{[2-(2-furyl)-5-methyl-1,3-oxazol-4-yl]methoxy}-3-methoxyphenyl)propyl]-1,3-oxazolidine-2,4-dione) (1 μM) was taken as 100% and the luciferase activity of the test compound non-administration group was taken as 0%.

The target in assay [2] is T2, human AT1 receptor (Homo sapiens, UniProt P30556).
T2 construct: expressed in transfected cells; membrane fraction
T2 sequence (P30556 1-359): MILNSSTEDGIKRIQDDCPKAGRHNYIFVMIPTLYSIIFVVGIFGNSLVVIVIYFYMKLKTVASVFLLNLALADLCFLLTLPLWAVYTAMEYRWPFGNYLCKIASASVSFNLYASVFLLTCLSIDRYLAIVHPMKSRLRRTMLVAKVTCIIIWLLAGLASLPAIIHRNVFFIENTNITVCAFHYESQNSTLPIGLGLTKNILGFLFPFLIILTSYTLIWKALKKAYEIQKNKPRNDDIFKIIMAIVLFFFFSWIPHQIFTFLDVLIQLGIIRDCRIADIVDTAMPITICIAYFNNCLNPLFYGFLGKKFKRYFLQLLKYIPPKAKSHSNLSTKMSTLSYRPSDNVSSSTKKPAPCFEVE
In words: AT1 receptor antagonistic activity: [125I]-angiotensin II binding assay on human AT1 receptor-expressing CHO-K1 cellular membrane fraction. The note with it: 22.5 pM [125I]-angiotensin II, 1 hr room temperature. The procedure: CHO-K1 cell (RIKEN, Japan) capable of stable expression of human AT1 receptor was cultured, recovered, suspended in homogenize buffer (10 mM NaHCO3 (pH 7.4), 5 mM EDTA, 1× Complete EDTA free) [manufactured by Roche, Switzerland], and homogenized. The homogenate was centrifuged at low-speed (900×g, 10 min, 4° C.), and the supernatant was recovered and ultracentrifuged (90,000×g, 1 hr, 4° C.). The supernatant was discarded, and the pellets were resuspended in suspension buffer (50 mM Tris (pH 7.4), 1 mM EDTA, 1× Complete EDTA free).
(9 μg) in the presence of AT1 membrane and test compound in 100 μl, (total reaction volume) of reaction buffer (50 mM Tris (pH 7.4), 10 mM MgCl2 supplemented or not supplemented with 0.3 mg/mL fatty acid-free bovine serum albumin [manufactured by Wako Pure Chemical Industries, Ltd., Japan]). The reaction mixture was incubated in 96 well polypropylene plate for 1 hr at room temperature, and the reaction was quenched by rapid filtration (96 well cell harvester) through a GF/C filter treated with wash buffer (50 mM Tris (pH 7.4)). Subsequently, the filter was washed 5 times with 0.3 mL of ice-cooled wash buffer. […] Total binding was measured in the presence of 1% DMSO and nonspecific binding was measured in the presence of […] Candesartan.

Experimental findings from US8283353B2, “Fused ring compound and use thereof” (Takeda Pharmaceutical Company Limited, priority 2009, dated 2012) are described below.

The compound `CCCc1c(Cc2ccc(-c3ccccc3-c3noc(=O)[nH]3)cc2)c(=O)n([C@H]2CC[C@H](OCC(O)C(F)(F)F)CC2)c2ccnn12` (relative stereo) [Example 428, 6-{[2′-(5-oxo-4,5-dihydro-1,2,4-oxadiazol-3-yl)biphenyl-4-yl]methyl}-7-propyl-4-[trans-4-(3,3,3-trifluoro-2-hydroxypropoxy)cyclohexyl]pyrazolo[1,5-a]pyrimidin-5(4H)-one] had an activation at 1 µM in assay [1] of 27%. Also, the IC50 (in general, the concentration that inhibits the measured activity by half) in assay [2] came out at 1.9 nM.

As for `CCCCc1c(Cc2ccc(-c3ccccc3-c3noc(=O)[nH]3)cc2)c(=O)n([C@H]2CC[C@H](OCC(C)O)CC2)c2ccnn12` (relative stereo) [Example 436, 7-butyl-4-[trans-4-(2-hydroxypropoxy)cyclohexyl]-6-{[2′-(5-oxo-4,5-dihydro-1,2,4-oxadiazol-3-yl)biphenyl-4-yl]methyl}pyrazolo[1,5-a]pyrimidin-5(4H)-one], in assay [1], the activation at 1 µM amounted to 32%. For the same compound, in assay [2], the half-maximal inhibitory concentration (IC50) turned out to be 1.8 nM.

Turning to `CCCc1c(Cc2ccc(-c3ccccc3-c3noc(=O)[nH]3)cc2F)c(=O)n([C@H]2CC[C@H](OCC(C)O)CC2)c2ccnn12` (relative stereo) [Example 437, 6-{[3-fluoro-2′-(5-oxo-4,5-dihydro-1,2,4-oxadiazol-3-yl)biphenyl-4-yl]methyl}-4-[trans-4-(2-hydroxypropoxy)cyclohexyl]-7-propylpyrazolo[1,5-a]pyrimidin-5(4H)-one], the activation at 1 µM in assay [1] is 30%. The same compound returned a half-maximal inhibitory concentration (IC50) in assay [2] of 1.6 nM.

As for `CCCc1c(Cc2ccc(-c3ccccc3-c3noc(=O)[nH]3)cc2)c(=O)n([C@H]2CC[C@H](OC(C)C(C)(C)O)CC2)c2ncnn12` (single isomer, unassigned) [Example 319, 4-[trans-4-(2-hydroxy-1,2-dimethylpropoxy)cyclohexyl]-6-{[2′-(5-oxo-4,5-dihydro-1,2,4-oxadiazol-3-yl)biphenyl-4-yl]methyl}-7-propyl[1,2,4]triazolo[1,5-a]pyrimidin-5(4H)-one (retention time: long)], in assay [1], the activation at 1 µM was 16%. In assay [2], this compound had an IC50 of 2 nM.

Consider `CCCc1c(Cc2ccc(-c3ccccc3-c3noc(=O)[nH]3)cc2)c(=O)n(CC(C)(C)C)c2nc(C)nn12` [Example 2, 4-(2,2-dimethylpropyl)-2-methyl-6-{[2′-(5-oxo-4,5-dihydro-1,2,4-oxadiazol-3-yl)biphenyl-4-yl]methyl}-7-propyl[1,2,4]triazolo[1,5-a]pyrimidin-5(4H)-one], for which the activation at 1 µM in assay [1] worked out at 18%. This compound yielded a half-maximal inhibitory concentration (IC50) in assay [2] of 1.3 nM.

Take `CCCc1c(Cc2ccc(-c3ccccc3-c3noc(=O)[nH]3)cc2)c(=O)n(Cc2ccc(F)cc2)c2ncnn12` [Example 4, 4-(4-fluorobenzyl)-6-{[2′-(5-oxo-4,5-dihydro-1,2,4-oxadiazol-3-yl)biphenyl-4-yl]methyl}-7-propyl[1,2,4]triazolo[1,5-a]pyrimidin-5(4H)-one]: in assay [1], the activation at 1 µM worked out at 39%. In assay [2], this compound displayed a concentration for half-maximal inhibition (IC50) of 2.6 nM.

Take `CCCc1c(Cc2ccc(-c3ccccc3-c3noc(=O)[nH]3)cc2)c(=O)n(Cc2ccc(F)cc2)c2nc(C)nn12` [Example 5, 4-(4-fluorobenzyl)-2-methyl-6-{[2′-(5-oxo-4,5-dihydro-1,2,4-oxadiazol-3-yl)biphenyl-4-yl]methyl}-7-propyl[1,2,4]triazolo[1,5-a]pyrimidin-5(4H)-one]: the activation at 1 µM in assay [1] was found to be 18%. Moreover, the half-maximal inhibitory concentration (IC50) in assay [2] stood at 1.7 nM.

Compound `CCCc1c(Cc2ccc(-c3ccccc3-c3noc(=O)[nH]3)cc2)c(=O)n(Cc2ccc(CC)nc2)c2nc(C)nn12` [Example 7, 4-[(6-ethylpyridin-3-yl)methyl]-2-methyl-6-{[2′-(5-oxo-4,5-dihydro-1,2,4-oxadiazol-3-yl)biphenyl-4-yl]methyl}-7-propyl[1,2,4]triazolo[1,5-a]pyrimidin-5(4H)-one] came in with an activation at 1 µM in assay [1] of 26%. The same compound returned an IC50 in assay [2] of 2.4 nM.

For the compound `CCCc1c(Cc2ccc(-c3ccccc3-c3noc(=O)[nH]3)cc2)c(=O)n(CC(C)(C)C)c2ncnn12` [Example 9, 4-(2,2-dimethylpropyl)-6-{[2′-(5-oxo-4,5-dihydro-1,2,4-oxadiazol-3-yl)biphenyl-4-yl]methyl}-7-propyl[1,2,4]triazolo[1,5-a]pyrimidin-5(4H)-one], in assay [1], the activation at 1 µM came out at 17%. This compound also had an IC50 in assay [2] of 2.1 nM.

In turn, `CCCCc1c(Cc2ccc(-c3ccccc3-c3noc(=O)[nH]3)cc2)c(=O)n(C2CCOC(C)C2)c2ncnn12` (stereo not shown) [Example 161, 7-butyl-4-(2-methyltetrahydro-2H-pyran-4-yl)-6-{[2′-(5-oxo-4,5-dihydro-1,2,4-oxadiazol-3-yl)biphenyl-4-yl]methyl}[1,2,4]triazolo[1,5-a]pyrimidin-5(4H)-one] showed a 50% inhibitory concentration (IC50) in assay [2] of 1.2 nM.
